Reference: paper PMC5392334, “Discovery and characterization of a novel irreversible EGFR mutants selective and potent kinase inhibitor CHMFL-EGFR-26 with a distinct binding mode” (Oncotarget, 2017)

Legend:
[1] = biological target: T1, TRKB (Homo sapiens, UniProt Q16620); test: KinomeScan; type: binding; conditions: read-out: % control
T1 construct: purchased DiscoveRx KINOMEscan

[2] = biological target: T2, WNK4 (Homo sapiens, UniProt Q96J92); test: KinomeScan; type: binding; conditions: read-out: % control
T2 construct: purchased DiscoveRx KINOMEscan

[3] = biological target: T3, ABL1(E255K)-phosphorylated (Homo sapiens, UniProt P00519, E255K); test: KinomeScan; type: binding; conditions: read-out: % control
T3 construct: purchased DiscoveRx KINOMEscan

[4] = biological target: T4, EPHA5 (Homo sapiens, UniProt P54756); test: KinomeScan; type: binding; conditions: read-out: % control
T4 construct: purchased DiscoveRx KINOMEscan

[5] = biological target: T5, RIOK1 (Homo sapiens, UniProt Q9BRS2); test: KinomeScan; type: binding; conditions: read-out: % control
T5 construct: purchased DiscoveRx KINOMEscan

[6] = biological target: T6, CLK2 (Homo sapiens, UniProt P49760); test: KinomeScan; type: binding; conditions: read-out: % control
T6 construct: purchased DiscoveRx KINOMEscan

[7] = test system: BaF3-TEL-EGFR-L858R-C797S; test: Anti-proliferation, BaF3 isogenic cell lines (CellTiter-Glo); type: cell-based; conditions: Mus musculus, 72 hours, triplet testing
[8] = biological target: T7, ABL1(Q252H)-nonphosphorylated (Homo sapiens, UniProt P00519, Q252H); test: KinomeScan; type: binding; conditions: read-out: % control
T7 construct: purchased DiscoveRx KINOMEscan

[9] = biological target: T8, FGFR2 (Homo sapiens, UniProt P21802); test: KinomeScan; type: binding; conditions: read-out: % control
T8 construct: purchased DiscoveRx KINOMEscan

[10] = biological target: T9, ITK (Homo sapiens, UniProt Q08881); test: KinomeScan; type: binding; conditions: read-out: % control
T9 construct: purchased DiscoveRx KINOMEscan

[11] = biological target: T10, MYO3B (Homo sapiens, UniProt Q8WXR4); test: KinomeScan; type: binding; conditions: read-out: % control
T10 construct: purchased DiscoveRx KINOMEscan

[12] = biological target: T11, YSK4 (Homo sapiens, UniProt Q56UN5); test: KinomeScan; type: binding; conditions: read-out: % control
T11 construct: purchased DiscoveRx KINOMEscan
T11 sequence (Q56UN5 whole entry): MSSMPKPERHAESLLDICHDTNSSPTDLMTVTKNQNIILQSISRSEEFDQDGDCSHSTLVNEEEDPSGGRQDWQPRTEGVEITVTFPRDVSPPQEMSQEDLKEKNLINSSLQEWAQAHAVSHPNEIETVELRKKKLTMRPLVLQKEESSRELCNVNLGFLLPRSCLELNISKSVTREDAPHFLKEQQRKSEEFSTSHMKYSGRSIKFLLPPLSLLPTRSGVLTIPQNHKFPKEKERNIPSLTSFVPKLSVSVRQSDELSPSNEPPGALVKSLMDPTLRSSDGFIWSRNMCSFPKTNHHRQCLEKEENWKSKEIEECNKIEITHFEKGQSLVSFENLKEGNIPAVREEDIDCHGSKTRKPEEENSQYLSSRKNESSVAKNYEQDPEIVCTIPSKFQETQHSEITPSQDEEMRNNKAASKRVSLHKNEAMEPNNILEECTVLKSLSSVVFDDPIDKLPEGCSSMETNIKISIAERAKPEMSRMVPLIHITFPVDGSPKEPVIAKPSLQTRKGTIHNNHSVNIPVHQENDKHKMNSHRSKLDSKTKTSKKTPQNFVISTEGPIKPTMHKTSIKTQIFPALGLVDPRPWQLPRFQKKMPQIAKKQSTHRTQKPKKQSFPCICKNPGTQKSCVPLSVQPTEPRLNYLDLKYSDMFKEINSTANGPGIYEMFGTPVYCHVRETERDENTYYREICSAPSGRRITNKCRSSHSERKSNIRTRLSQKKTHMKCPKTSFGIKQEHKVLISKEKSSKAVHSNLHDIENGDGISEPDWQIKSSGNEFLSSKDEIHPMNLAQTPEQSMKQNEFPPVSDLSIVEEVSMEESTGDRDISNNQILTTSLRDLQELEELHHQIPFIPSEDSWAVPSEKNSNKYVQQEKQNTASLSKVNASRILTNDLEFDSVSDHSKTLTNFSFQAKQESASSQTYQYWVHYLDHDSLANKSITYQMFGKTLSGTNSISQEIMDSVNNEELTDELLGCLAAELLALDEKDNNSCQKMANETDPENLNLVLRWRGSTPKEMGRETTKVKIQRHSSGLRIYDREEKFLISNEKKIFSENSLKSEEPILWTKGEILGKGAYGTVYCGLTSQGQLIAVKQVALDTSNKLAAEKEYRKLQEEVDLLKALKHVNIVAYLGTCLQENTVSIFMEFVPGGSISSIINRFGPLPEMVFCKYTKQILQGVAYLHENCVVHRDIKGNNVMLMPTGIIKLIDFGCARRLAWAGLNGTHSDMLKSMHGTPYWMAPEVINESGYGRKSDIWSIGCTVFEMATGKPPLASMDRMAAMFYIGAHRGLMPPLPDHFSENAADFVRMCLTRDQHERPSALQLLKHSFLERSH

[13] = biological target: T12, SRPK3 (Homo sapiens, UniProt Q9UPE1); test: KinomeScan; type: binding; conditions: read-out: % control
T12 construct: purchased DiscoveRx KINOMEscan
T12 sequence (Q9UPE1 whole entry): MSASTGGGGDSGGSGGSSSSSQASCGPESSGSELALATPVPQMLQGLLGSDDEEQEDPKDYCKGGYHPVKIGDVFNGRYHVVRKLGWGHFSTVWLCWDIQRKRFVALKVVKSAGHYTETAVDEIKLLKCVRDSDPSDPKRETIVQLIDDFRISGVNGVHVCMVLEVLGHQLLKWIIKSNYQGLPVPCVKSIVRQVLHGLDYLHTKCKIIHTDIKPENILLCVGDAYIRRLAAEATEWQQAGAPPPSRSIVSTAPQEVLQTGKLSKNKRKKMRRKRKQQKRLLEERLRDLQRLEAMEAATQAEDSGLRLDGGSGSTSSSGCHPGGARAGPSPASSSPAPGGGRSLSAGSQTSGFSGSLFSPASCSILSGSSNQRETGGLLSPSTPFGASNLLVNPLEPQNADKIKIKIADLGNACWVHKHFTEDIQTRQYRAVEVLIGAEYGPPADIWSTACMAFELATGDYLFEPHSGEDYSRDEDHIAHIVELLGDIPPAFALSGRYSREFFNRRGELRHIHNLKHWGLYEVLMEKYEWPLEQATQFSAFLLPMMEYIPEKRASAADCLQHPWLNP

[14] = biological target: T13, CHEK1 (Homo sapiens, UniProt O14757); test: KinomeScan; type: binding; conditions: read-out: % control
T13 construct: purchased DiscoveRx KINOMEscan

[15] = biological target: T14, KIT(A829P) (Homo sapiens, UniProt P10721, A829P); test: KinomeScan; type: binding; conditions: read-out: % control
T14 construct: purchased DiscoveRx KINOMEscan

[16] = biological target: T15, TRKC (Homo sapiens, UniProt Q16288); test: KinomeScan; type: binding; conditions: read-out: % control
T15 construct: purchased DiscoveRx KINOMEscan

[17] = biological target: T16, EPHB4 (Homo sapiens, UniProt P54760); test: KinomeScan; type: binding; conditions: read-out: % control
T16 construct: purchased DiscoveRx KINOMEscan

[18] = biological target: T17, ALK(L1196M) (Homo sapiens, UniProt Q9UM73, L1196M); test: KinomeScan; type: binding; conditions: read-out: % control
T17 construct: purchased DiscoveRx KINOMEscan

[19] = biological target: T18, TNK2 (Homo sapiens, UniProt Q07912); test: KinomeScan; type: binding; conditions: read-out: % control
T18 construct: purchased DiscoveRx KINOMEscan

[20] = biological target: T19, HIPK1 (Homo sapiens, UniProt Q86Z02); test: KinomeScan; type: binding; conditions: read-out: % control
T19 construct: purchased DiscoveRx KINOMEscan

[21] = biological target: T20, CDK4-cyclinD1 (Homo sapiens, UniProt P11802); test: KinomeScan; type: binding; conditions: read-out: % control
T20 construct: purchased DiscoveRx KINOMEscan

[22] = biological target: T21, PDPK1 (Homo sapiens, UniProt O15530); test: KinomeScan; type: binding; conditions: read-out: % control
T21 construct: purchased DiscoveRx KINOMEscan

[23] = biological target: T22, EPHA8 (Homo sapiens, UniProt P29322); test: KinomeScan; type: binding; conditions: read-out: % control
T22 construct: purchased DiscoveRx KINOMEscan
T22 sequence (P29322 28-1005): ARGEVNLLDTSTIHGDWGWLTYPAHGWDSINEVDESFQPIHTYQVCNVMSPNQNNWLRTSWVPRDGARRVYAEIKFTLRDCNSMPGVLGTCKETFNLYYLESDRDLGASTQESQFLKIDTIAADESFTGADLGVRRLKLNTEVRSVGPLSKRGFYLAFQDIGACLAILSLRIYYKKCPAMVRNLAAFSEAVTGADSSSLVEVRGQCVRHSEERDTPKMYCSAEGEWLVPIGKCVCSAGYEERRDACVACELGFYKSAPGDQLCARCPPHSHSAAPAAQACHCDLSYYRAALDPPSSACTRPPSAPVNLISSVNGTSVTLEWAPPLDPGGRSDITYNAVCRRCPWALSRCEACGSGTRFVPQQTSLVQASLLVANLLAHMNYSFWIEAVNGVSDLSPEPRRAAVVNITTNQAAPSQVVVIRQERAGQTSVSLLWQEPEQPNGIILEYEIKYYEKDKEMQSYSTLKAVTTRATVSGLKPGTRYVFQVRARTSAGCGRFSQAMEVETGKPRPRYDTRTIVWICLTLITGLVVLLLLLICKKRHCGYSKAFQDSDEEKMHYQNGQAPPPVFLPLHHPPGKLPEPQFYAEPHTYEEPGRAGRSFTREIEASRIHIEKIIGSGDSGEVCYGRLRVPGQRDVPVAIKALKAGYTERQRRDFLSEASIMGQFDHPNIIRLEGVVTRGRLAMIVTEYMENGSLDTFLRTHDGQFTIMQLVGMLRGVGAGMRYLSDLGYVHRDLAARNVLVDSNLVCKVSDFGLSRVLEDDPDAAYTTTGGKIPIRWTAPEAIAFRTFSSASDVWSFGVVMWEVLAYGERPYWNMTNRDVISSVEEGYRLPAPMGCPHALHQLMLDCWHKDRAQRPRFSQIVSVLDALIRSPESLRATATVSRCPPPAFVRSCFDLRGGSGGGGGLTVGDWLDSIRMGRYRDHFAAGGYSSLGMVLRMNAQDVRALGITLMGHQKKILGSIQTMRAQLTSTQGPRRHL

[24] = biological target: T23, SNRK (Homo sapiens, UniProt Q9NRH2); test: KinomeScan; type: binding; conditions: read-out: % control
T23 construct: purchased DiscoveRx KINOMEscan

[25] = biological target: T24, CSNK2A1 (Homo sapiens, UniProt P68400); test: KinomeScan; type: binding; conditions: read-out: % control
T24 construct: purchased DiscoveRx KINOMEscan

[26] = biological target: T25, GRK3 (Homo sapiens, UniProt P35626); test: KinomeScan; type: binding; conditions: read-out: % control
T25 construct: purchased DiscoveRx KINOMEscan
T25 sequence (P35626 whole entry): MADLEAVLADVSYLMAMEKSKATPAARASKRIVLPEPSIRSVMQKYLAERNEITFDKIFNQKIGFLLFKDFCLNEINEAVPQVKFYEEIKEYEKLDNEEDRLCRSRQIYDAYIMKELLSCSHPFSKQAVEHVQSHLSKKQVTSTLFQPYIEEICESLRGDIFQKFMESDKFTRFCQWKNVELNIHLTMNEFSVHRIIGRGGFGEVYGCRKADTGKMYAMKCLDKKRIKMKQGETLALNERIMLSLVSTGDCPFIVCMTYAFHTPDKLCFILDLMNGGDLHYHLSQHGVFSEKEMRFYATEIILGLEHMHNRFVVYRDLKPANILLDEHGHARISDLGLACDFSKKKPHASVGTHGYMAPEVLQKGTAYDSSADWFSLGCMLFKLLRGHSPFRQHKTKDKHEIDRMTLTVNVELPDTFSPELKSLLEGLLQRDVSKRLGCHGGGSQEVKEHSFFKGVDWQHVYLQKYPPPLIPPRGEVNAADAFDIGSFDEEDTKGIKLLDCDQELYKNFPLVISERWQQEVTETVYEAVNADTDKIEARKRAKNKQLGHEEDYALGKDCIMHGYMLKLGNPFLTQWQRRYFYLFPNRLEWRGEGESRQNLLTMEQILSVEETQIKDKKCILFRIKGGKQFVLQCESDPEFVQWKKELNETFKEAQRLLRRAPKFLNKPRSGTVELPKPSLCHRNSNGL

[27] = biological target: T26, TGFBR1 (Homo sapiens, UniProt P36897); test: KinomeScan; type: binding; conditions: read-out: % control
T26 construct: purchased DiscoveRx KINOMEscan

[28] = biological target: T27, LTK (Homo sapiens, UniProt P29376); test: KinomeScan; type: binding; conditions: read-out: % control
T27 construct: purchased DiscoveRx KINOMEscan

[29] = biological target: T28, DMPK2 (Homo sapiens, UniProt Q6DT37); test: KinomeScan; type: binding; conditions: read-out: % control
T28 construct: purchased DiscoveRx KINOMEscan

[30] = biological target: T29, PRKD1 (Homo sapiens, UniProt Q15139); test: KinomeScan; type: binding; conditions: read-out: % control
T29 construct: purchased DiscoveRx KINOMEscan

[31] = biological target: T30, MAP3K2 (Homo sapiens, UniProt Q9Y2U5); test: KinomeScan; type: binding; conditions: read-out: % control
T30 construct: purchased DiscoveRx KINOMEscan

[32] = biological target: T31, PDGFRA (Homo sapiens, UniProt P16234); test: KinomeScan; type: binding; conditions: read-out: % control
T31 construct: purchased DiscoveRx KINOMEscan

[33] = biological target: T32, EGFR(L858R) (Homo sapiens, UniProt P00533, L858R); test: KinomeScan; type: binding; conditions: read-out: % control
T32 construct: purchased DiscoveRx KINOMEscan

[34] = biological target: T33, CDKL1 (Homo sapiens, UniProt Q00532); test: KinomeScan; type: binding; conditions: read-out: % control
T33 construct: purchased DiscoveRx KINOMEscan

[35] = biological target: T34, FLT3(D835Y) (Homo sapiens, UniProt P36888, D835Y); test: KinomeScan; type: binding; conditions: read-out: % control
T34 construct: purchased DiscoveRx KINOMEscan

[36] = biological target: T35, SRMS (Homo sapiens, UniProt Q9H3Y6); test: KinomeScan; type: binding; conditions: read-out: % control
T35 construct: purchased DiscoveRx KINOMEscan

[37] = biological target: T36, LRRK2(G2019S) (Homo sapiens, UniProt Q5S007, G2019S); test: KinomeScan; type: binding; conditions: read-out: % control
T36 construct: purchased DiscoveRx KINOMEscan

[38] = biological target: T37, KIT(D816V) (Homo sapiens, UniProt P10721, D816V); test: KinomeScan; type: binding; conditions: read-out: % control
T37 construct: purchased DiscoveRx KINOMEscan

[39] = biological target: T38, CHEK2 (Homo sapiens, UniProt O96017); test: KinomeScan; type: binding; conditions: read-out: % control
T38 construct: purchased DiscoveRx KINOMEscan

[40] = biological target: T39, PIP5K2C (Homo sapiens, UniProt Q8TBX8); test: KinomeScan; type: binding; conditions: read-out: % control
T39 construct: purchased DiscoveRx KINOMEscan

[41] = biological target: T40, IKK-alpha (Homo sapiens, UniProt O15111); test: KinomeScan; type: binding; conditions: read-out: % control
T40 construct: purchased DiscoveRx KINOMEscan
T40 sequence (O15111 whole entry): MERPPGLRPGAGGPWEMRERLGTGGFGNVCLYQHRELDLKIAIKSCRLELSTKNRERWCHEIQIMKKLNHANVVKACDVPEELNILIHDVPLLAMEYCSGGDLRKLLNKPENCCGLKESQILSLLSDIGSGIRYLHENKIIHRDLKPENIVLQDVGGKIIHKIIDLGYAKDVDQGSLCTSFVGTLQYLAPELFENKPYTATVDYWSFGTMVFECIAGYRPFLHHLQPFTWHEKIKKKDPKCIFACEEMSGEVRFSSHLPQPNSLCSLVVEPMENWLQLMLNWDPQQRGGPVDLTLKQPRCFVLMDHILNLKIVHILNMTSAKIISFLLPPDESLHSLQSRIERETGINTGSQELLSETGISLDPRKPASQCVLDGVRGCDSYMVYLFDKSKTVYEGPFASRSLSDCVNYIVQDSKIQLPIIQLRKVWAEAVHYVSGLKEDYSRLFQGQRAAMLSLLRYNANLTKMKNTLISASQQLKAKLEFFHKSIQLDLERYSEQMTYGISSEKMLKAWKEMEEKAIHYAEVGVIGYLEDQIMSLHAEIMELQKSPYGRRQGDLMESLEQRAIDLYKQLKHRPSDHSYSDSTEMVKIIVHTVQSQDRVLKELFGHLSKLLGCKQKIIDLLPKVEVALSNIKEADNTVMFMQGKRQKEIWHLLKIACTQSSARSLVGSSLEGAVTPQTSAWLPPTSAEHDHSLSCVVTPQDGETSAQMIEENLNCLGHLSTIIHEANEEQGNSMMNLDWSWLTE

[42] = biological target: T41, CAMK4 (Homo sapiens, UniProt Q16566); test: KinomeScan; type: binding; conditions: read-out: % control
T41 construct: purchased DiscoveRx KINOMEscan
T41 sequence (Q16566 whole entry): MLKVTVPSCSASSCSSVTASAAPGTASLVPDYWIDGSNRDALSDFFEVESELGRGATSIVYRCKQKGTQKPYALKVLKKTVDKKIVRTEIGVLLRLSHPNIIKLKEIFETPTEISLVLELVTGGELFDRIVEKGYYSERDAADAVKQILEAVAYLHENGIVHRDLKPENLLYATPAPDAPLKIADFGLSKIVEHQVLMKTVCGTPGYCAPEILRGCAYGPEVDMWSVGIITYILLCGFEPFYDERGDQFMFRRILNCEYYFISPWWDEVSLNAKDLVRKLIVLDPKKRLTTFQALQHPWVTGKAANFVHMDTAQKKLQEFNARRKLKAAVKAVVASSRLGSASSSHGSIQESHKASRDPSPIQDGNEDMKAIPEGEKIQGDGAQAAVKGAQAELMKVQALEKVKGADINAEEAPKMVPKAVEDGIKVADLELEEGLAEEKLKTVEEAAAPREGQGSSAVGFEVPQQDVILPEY

[43] = biological target: T42, DLK (Homo sapiens, UniProt Q12852); test: KinomeScan; type: binding; conditions: read-out: % control
T42 construct: purchased DiscoveRx KINOMEscan

Structure (SMILES): C=CC(=O)N1CCC[C@@H](n2nc(-c3ccc(OCc4cccc(C)n4)c(Cl)c3)c3c(N)ncnc32)C1 [CHMFL-EGFR-26]
- remaining binding at 1 µM [1]: 100%
- remaining binding at 1 µM [2]: 86%
- remaining binding at 1 µM [3]: 98%
- remaining binding at 1 µM [4]: 100%
- remaining binding at 1 µM [5]: 90%
- remaining binding at 1 µM [6]: 96%
- GI50 [7]: 3.2 µM
- remaining binding at 1 µM [8]: 100%
- remaining binding at 1 µM [9]: 100%
- remaining binding at 1 µM [10]: 96%
- remaining binding at 1 µM [11]: 98%
- remaining binding at 1 µM [12]: 67%
- remaining binding at 1 µM [13]: 90%
- remaining binding at 1 µM [14]: 100%
- remaining binding at 1 µM [15]: 100%
- remaining binding at 1 µM [16]: 100%
- remaining binding at 1 µM [17]: 100%
- remaining binding at 1 µM [18]: 100%
- remaining binding at 1 µM [19]: 93%
- remaining binding at 1 µM [20]: 98%
- remaining binding at 1 µM [21]: 100%
- remaining binding at 1 µM [22]: 97%
- remaining binding at 1 µM [23]: 89%
- remaining binding at 1 µM [24]: 100%
- remaining binding at 1 µM [25]: 100%
- remaining binding at 1 µM [26]: 100%
- remaining binding at 1 µM [27]: 7%
- remaining binding at 1 µM [28]: 94%
- remaining binding at 1 µM [29]: 28%
- remaining binding at 1 µM [30]: 85%
- remaining binding at 1 µM [31]: 52%
- remaining binding at 1 µM [32]: 100%
- remaining binding at 1 µM [33]: 2.5%
- remaining binding at 1 µM [34]: 100%
- remaining binding at 1 µM [35]: 97%
- remaining binding at 1 µM [36]: 11%
- remaining binding at 1 µM [37]: 100%
- remaining binding at 1 µM [38]: 100%
- remaining binding at 1 µM [39]: 88%
- remaining binding at 1 µM [40]: 85%
- remaining binding at 1 µM [41]: 98%
- remaining binding at 1 µM [42]: 100%
- remaining binding at 1 µM [43]: 78%
